The results in this text go back to patent EP1885364B1, “HALOGENATED QUINDOLINE DIMERS FOR THE TREATMENT OF CANCER” (Crystax Pharmaceuticals, S.L., priority 2005, dated 2006).

Assay type in all cases: cell-based
The subject of test [1] is IMR-32 neuroblastoma. Description: MTT in vitro cytotoxicity, IMR-32. The conditions noted are these: Homo sapiens, IMR-32 cells, concentrations until 100 µM, incubation until 72 h. As for the experimental part:
(§1) These compounds have been tested in a greater number of different cell lines. IC50 is the compound concentration at which 50% of a specific cell type die in a standardized assay, and thus a measure of cytotoxicity. […]
(§2) The in vitro cytotoxicity of the compounds of the present invention was evaluated by colorimetric assays with tetrazol salts (MTT) on Jurkat clon E6-1 leukemia, on GLC-4 clon carcinoma, on K-562 chronic myelogenous leukemia, on A549 lung carcinoma, on RPMI-1788 leukocytes of peripherial blood from healthy […], on MCF-7 breast adenocarcinoma, on Capan-2 pancreas adenocarcinoma, on Colo320HSR colon carcinoma, on SW-837 rectum adenocarcinoma, on IM-9 bone marrow myeloma, on IMR-32 neuroblastoma and on MT-4 mixed heart's and peripheral blood's lymphocytes of patients with T-cell leukemia human cell lines, according to the protocol described by Mosmann et al. (J. Immunol. […]

Test [2] deals with Jurkat clon E6-1 leukemia. Description: MTT in vitro cytotoxicity, Jurkat. The conditions noted are these: Homo sapiens, Jurkat cells, concentrations until 100 µM, incubation until 72 h. The source says:
(§3) IC50 is the compound concentration at which 50% of a specific cell type die in a standardized assay, and thus a measure of cytotoxicity. Jurkat is a human leukaemia T cell line, GLC-4 is a human small-cell lung-carcinoma cell line and NIH-3T3 is a rat non-cancerous cell line. [drawing 3]
(§4) These compounds have been tested in a greater number of different cell lines. IC50 is the compound concentration at which 50% of a specific cell type die in a standardized assay, and thus a measure of cytotoxicity. Jurkat is a human leukaemia T cell line, GLC-4 is a human small-cell lung-carcinoma cell line, NIH-3T3 is a rat non-cancerous cell line, K-562 is a human chronic myelogenous leukemia cell line, A549 is a human lung carcinoma cell line, RPMI-1788 is a human leukocytes of peripherial blood from healthy […] cell line, MCF-7 is a human breast adenocarcinoma cell line, Capan-2 is a human pancreas adenocarcinoma cell line, Colo320HSR is a human colon carcinoma cell line, SW-837 is a human rectum adenocarcinoma cell line, IM-9 is a human bone marrow myeloma cell line, IMR-32 is a human neuroblastoma cell line and MT-4 is a human mixed heart's and peripheral blood's lymphocytes of patients with T-cell leukemia cell line. Table 2. Biological activities of IIIa-IIIg.
(§5) The in vitro cytotoxicity of the compounds of the present invention was evaluated by colorimetric assays with tetrazol salts (MTT) on Jurkat clon E6-1 leukemia, on GLC-4 clon carcinoma, on K-562 chronic myelogenous leukemia, on A549 lung carcinoma, on RPMI-1788 leukocytes of peripherial blood from healthy […], on MCF-7 breast adenocarcinoma, on Capan-2 pancreas adenocarcinoma, on Colo320HSR colon carcinoma, on SW-837 rectum adenocarcinoma, on IM-9 bone marrow myeloma, on IMR-32 neuroblastoma and on MT-4 mixed heart's and peripheral blood's lymphocytes of patients with T-cell leukemia human cell lines, according to the protocol described by Mosmann et al. (J. Immunol. Methods, 1983,65, 55-63) incorporated herein by reference. In all cases the concentrations used were until 100 µM and times of incubation until 72 h. […] Table 3. Biological activities.

Test [3] deals with MT-4 mixed heart's and peripheral blood's lymphocytes of patients with T-cell leukemia. Description: MTT in vitro cytotoxicity, MT-4. Particulars: Homo sapiens, MT4, MT-4 cells, concentrations until 100 µM, incubation until 72 h. The protocol:
as §1, §2

The test system of test [4] is RPMI-1788 leukocytes of peripherial blood from healthy person. Description: MTT in vitro cytotoxicity, RPMI-1788. Particulars: Homo sapiens, RPMI-1788 cells (from healthy person), concentrations until 100 µM, incubation until 72 h.
Excerpt: as §4, §5

Test [5] deals with SW-837 rectum adenocarcinoma. Description: MTT in vitro cytotoxicity, SW-837. Particulars: Homo sapiens, SW837, SW-837 cells, concentrations until 100 µM, incubation until 72 h. As for the experimental part: as §1, §2
Test [6] concerns A549 lung carcinoma. Description: MTT in vitro cytotoxicity, A549. The conditions noted are these: Homo sapiens, A549 cells, concentrations until 100 µM, incubation until 72 h.
Excerpt: as §4, §5

For test [7], the system named is K-562 chronic myelogenous leukemia. Description: MTT in vitro cytotoxicity, K-562. The conditions noted are these: Homo sapiens, K562, K-562 cells, concentrations until 100 µM, incubation until 72 h.
Excerpt: as §4, §5

In test [8] the test system is NIH-3T3. Description: Cytotoxicity in non-cancerous cell line NIH-3T3. Particulars: NIH3T3; NIH-3T3 non-cancerous cell line.
Excerpt: as §3, §4

In test [9] the test system is Capan-2 pancreas adenocarcinoma. Description: MTT in vitro cytotoxicity, Capan-2. The conditions noted are these: Homo sapiens, Capan-2 cells, concentrations until 100 µM, incubation until 72 h. As for the experimental part:
as §1, §2

The subject of test [10] is IM-9 bone marrow myeloma. Description: MTT in vitro cytotoxicity, IM-9. The conditions noted are these: Homo sapiens, IM-9 cells, concentrations until 100 µM, incubation until 72 h. As for the experimental part:
as §1, §2

For test [11], the system named is Colo320HSR colon carcinoma. Description: MTT in vitro cytotoxicity, Colo320HSR. Particulars: Homo sapiens, Colo-320HSR cells, concentrations until 100 µM, incubation until 72 h. The protocol: as §1, §2
The test system of test [12] is GLC-4. Description: MTT in vitro cytotoxicity, GLC-4. Particulars: Homo sapiens, GLC4, GLC-4 cells, concentrations until 100 µM, incubation until 72 h.
Excerpt: as §3, §4, §5

The test system of test [13] is MCF-7 breast adenocarcinoma. Description: MTT in vitro cytotoxicity, MCF-7. The conditions noted are these: Homo sapiens, MCF7, MCF-7 cells, concentrations until 100 µM, incubation until 72 h. The protocol: as §1, §2

A value given as a limit tells only on which side of the number the result lay.

In general, IC50 refers to the concentration needed to halve the response being measured. Lower therefore signals higher potency. For the compound `CN(CCCNC(=O)c1c2cc(Cl)ccc2nc2c1[nH]c1ccccc12)CCCNC(=O)c1c2cc(Cl)ccc2nc2c1[nH]c1ccccc12` [IIIa, N,N'-(4-methyl-4-azaheptamethylene)-di-(-2-chloro-10H-indolo[3,2-b]quinoline)-11,11'-arboxamide], the IC50 in test [1] worked out at 0.9 µM; in test [2], 0.09 µM; in test [3], 4.5 µM; in [4] it was 3 µM; in test [5], 6.2 µM; in test [6], 12.2 µM. In addition, the IC50 in test [7] came out at 0.65 µM; in test [8], 11.2 µM; in [9], 20.1 µM; in [10], 4.6 µM; in [11], 0.45 µM; in test [12] it was 0.16 µM. Further, the 50% inhibitory concentration (IC50) in test [13] worked out at 3.4 µM.
Take `CN(CCCNC(=O)c1c2cc(F)ccc2nc2c1[nH]c1ccccc12)CCCNC(=O)c1c2cc(F)ccc2nc2c1[nH]c1ccccc12` [IIIb, N,N'-(4-methyl-4-azaheptamethylene)-di-(-2-fluoro-10H-indolo[3,2-b]quinoline)-11,11'-carboxamide]: the IC50 in test [1] came to 0.7 µM; in test [2], 0.5 µM; in test [3], 9 µM; in [4], 5.3 µM; in test [5], 17.9 µM; in test [6], 10 µM. The IC50 was 1.1 µM in test [7]; 64.3 µM in test [8]; 25.5 µM in test [9]; 7.5 µM in test [10]; 3.2 µM in test [11]; 4.8 µM in test [13].
Turning to `CN(CCCNC(=O)c1c2cc(Br)ccc2nc2c1[nH]c1ccccc12)CCCNC(=O)c1c2cc(Br)ccc2nc2c1[nH]c1ccccc12` [IIIc, N,N'-(4-methyl-4-azaheptamethylene)-di-(-2-bromo-10H-indolo[3,2-b]quinoline)-11,11'-carboxamide], the IC50 was 0.8 µM in test [2] and 9.1 µM in [4].
Consider `CN(CCCNC(=O)c1c2cc(Cl)ccc2nc2c1[nH]c1ccccc12)CCCNC(=O)c1c2cc(Br)ccc2nc2c1[nH]c1ccccc12` [IIId, N-[3-[[3-[11-((2-bromo-10H-indolo[3,2-b]quinoline)carbonyl)amino]-propyl]-methylamino]propyl]-2-chloro-10H-indolo[3,2-b]quinoline-11-carboxamide], for which the IC50 in [2] is 0.6 µM; in [4], 3.5 µM; in test [6], 12.9 µM; in test [7], 5.3 µM.
The matching figures for `CN(CCCNC(=O)c1c2cc(F)ccc2nc2c1[nH]c1ccccc12)CCCNC(=O)c1c2cc(Cl)ccc2nc2c1[nH]c1ccccc12` [IIIe, N-[3-[[3-[11-((2-chloro-10H-indolo[3,2-b]quinoline)carbonyl)amino]-propyl]-methylamino]propyl]-2-fluoro-10l-l-indolo[3,2-b]quinoline-11-carboxamide]: 0.5 µM, 2.9 µM, 11.6 µM and 6.1 µM.
In the case of `CN(CCCNC(=O)c1c2ccccc2nc2c1[nH]c1ccccc12)CCCNC(=O)c1c2cc(F)ccc2nc2c1[nH]c1ccccc12` [IIIf, N-[3-[[3-[11-((2-fluoro-10H-indolo[3,2-b]quinoline)carbonyl)amino]-propyl]-methylamino]propyl]-10H-indolo[3,2-b]quinoline-11-carboxamide], the IC50 in test [2] was 0.2 µM; in test [4], 1.7 µM; in test [6], 1.6 µM; in test [7] it was 2.8 µM.
Consider `CN(CCCNC(=O)c1c2ccccc2nc2c1[nH]c1ccccc12)CCCNC(=O)c1c2cc(Cl)ccc2nc2c1[nH]c1ccccc12` [IIIg, N-[3-[[3-[11-((2-chloro-10H-indolo[3,2-b]quinoline)carbonyl)amino]-propyl]-methylamino]propyl]-10H-indolo[3,2-b]quinoline-11-carboxamide], for which the half-maximal inhibitory concentration (IC50) amounted to 0.7 µM in test [2], 3.2 µM in test [4], 6.2 µM in [6] and 5.8 µM in test [7].
Take `O=C(O)c1c2cc(Cl)ccc2nc2c1[nH]c1ccccc12` [IIa]: the IC50 in test [2] was above 25 µM; in test [12], 15.7 µM.
As to `O=C(O)c1c2cc(F)ccc2nc2c1[nH]c1ccccc12` [IIb], the IC50 in test [2] was 13 µM; in [12], 12 µM.
The compound `O=C(O)c1c2cc(Br)ccc2nc2c1[nH]c1ccccc12` [IIc] came in with an IC50 in test [2] above 25 µM.
Take `CN(CCCNC(=O)c1c2ccccc2nc2c1[nH]c1ccccc12)CCCNC(=O)c1c2ccccc2nc2c1[nH]c1ccccc12` [Ia, reference compound]: the 50% inhibitory concentration (IC50) in test [2] worked out at 0.97 µM; in test [8], 6.77 µM; in [12], 1.45 µM.
